Results from ChEMBL document CHEMBL1201862, “PubChem BioAssay data set” (2004).
Blank lines part the entries; values can stand above or below the compound they belong to. The source made the active and inactive calls.

Experiments:
[1] = target: Eukaryotic translation initiation factor 4E (Mus musculus, UniProt P63073); assay: eIF4E–eIF4G protein interaction inhibitors, dose response, biochemical, TR-FRET (AID 855); type: functional;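 further: potency for disrupting eIF4E binding to eIF4GI seen as loss of FRET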
Eukaryotic translation initiation factor 4E, sequence (P63073 whole entry): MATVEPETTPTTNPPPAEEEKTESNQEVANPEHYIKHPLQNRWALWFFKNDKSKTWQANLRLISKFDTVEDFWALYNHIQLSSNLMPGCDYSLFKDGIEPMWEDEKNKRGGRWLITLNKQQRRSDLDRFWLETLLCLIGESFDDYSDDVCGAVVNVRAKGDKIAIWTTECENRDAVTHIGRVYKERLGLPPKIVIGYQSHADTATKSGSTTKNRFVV

[2] = inhibitors of Vif binding to APOBEC3G peptide, primary screen, biochemical, TR-FRET, GST-Vif 1-94, biotin-A3G peptide, dose response retest (AID 1117319); type: functional;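 further: TR-FRET signal of purified GST-Vif binding a biotinylated A3G peptide; inhibitors lower the FRET signal by blocking Vif and A3G binding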
[3] = P. falciparum late gametocyte killing, dose response, luminescence (AID 1117278); type: functional, cell-based;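 further: gametocytes exposed to compound for 24 hours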
[4] = Jurkat T cell cytotoxicity, dose response, cytotoxicity control for P. falciparum gametocyte viability project, luminescence (AID 1117277); type: functional, cell-based;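 further: potency reflects loss of cellular ATP meaning fewer viable cells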
[5] = cytotoxicity toward NIH3T3 fibroblasts, dose response, counter-screen, cell-based, ATP luminescence, mouse fibroblasts (AID 2010); type: functional;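 further: cells exposed to compound for about 90 hours before reading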
[6] = inhibitors of intracellular T. cruzi replication, confirmation, NIH3T3 host cells, beta-gal luminescence (AID 2044); type: functional, cell-based;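 further: intracellular parasites grown in NIH/3T3 mouse fibroblasts as host cells; luminescent beta-galactosidase reporter signal from transgenic T. cruzi replicating inside host cells; inhibitors lower the luminescence signal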
Estrogen receptor beta [7] = target: T1, Estrogen receptor beta (Homo sapiens, UniProt Q92731);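 further: recombinant ER-beta bound to coactivator SRC1 peptide in presence of estradiol agonist; inhibitors block coactivator peptide binding and lower the FRET signal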
T1 sequence (Q92731 whole entry): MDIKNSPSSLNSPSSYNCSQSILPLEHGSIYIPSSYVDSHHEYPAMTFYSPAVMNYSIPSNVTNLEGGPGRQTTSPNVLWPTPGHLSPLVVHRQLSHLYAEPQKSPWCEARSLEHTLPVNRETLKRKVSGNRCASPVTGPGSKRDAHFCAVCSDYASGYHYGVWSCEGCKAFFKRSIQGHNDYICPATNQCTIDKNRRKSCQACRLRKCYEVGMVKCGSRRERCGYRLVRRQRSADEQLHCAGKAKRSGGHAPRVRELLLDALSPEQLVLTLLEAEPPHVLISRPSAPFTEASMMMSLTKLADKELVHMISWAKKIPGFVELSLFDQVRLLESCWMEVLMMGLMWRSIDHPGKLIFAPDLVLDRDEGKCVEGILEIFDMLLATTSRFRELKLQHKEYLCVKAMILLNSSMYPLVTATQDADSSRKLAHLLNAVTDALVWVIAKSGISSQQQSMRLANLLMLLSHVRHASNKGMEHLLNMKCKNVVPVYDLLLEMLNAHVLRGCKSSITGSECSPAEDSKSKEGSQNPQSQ

[8] = target: T2, Tyrosine-protein phosphatase non-receptor type 7 (Homo sapiens, UniProt P35236); assay: inhibitors of human HePTP phosphatase, […], biochemical, absorbance, leukemia target (AID 521); type: functional
T2 sequence (P35236 whole entry): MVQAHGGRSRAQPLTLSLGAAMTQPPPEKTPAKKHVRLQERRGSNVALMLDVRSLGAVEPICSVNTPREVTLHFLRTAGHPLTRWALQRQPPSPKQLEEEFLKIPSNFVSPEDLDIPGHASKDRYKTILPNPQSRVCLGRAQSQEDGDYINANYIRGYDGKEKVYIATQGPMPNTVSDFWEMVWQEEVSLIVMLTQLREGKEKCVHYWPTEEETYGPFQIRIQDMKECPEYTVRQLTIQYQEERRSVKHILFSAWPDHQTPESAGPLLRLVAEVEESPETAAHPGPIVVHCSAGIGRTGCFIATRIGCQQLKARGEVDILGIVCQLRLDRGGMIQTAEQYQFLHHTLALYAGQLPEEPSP

[9] = target: T3, Low molecular weight phosphotyrosine protein phosphatase (Homo sapiens, UniProt P24666); type: functional; details: read-out: IC50_Mean;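 further: Dose-response confirmation assay measuring inhibition of LMPTP enzyme activity by fluorescence intensity read-out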
T3 sequence (P24666 whole entry): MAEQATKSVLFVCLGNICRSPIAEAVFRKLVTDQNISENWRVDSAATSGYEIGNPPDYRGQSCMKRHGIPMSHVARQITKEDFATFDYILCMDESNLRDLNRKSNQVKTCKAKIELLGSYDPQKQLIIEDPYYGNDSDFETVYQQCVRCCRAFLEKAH

Estrogen receptor beta [10] = target: T1, Estrogen receptor beta; assay: ERβ–SRC-3 coactivator interaction inhibitors, confirmation, orthogonal assay, biochemical, ELISA, streptavidin-HRP readout (AID 1060)
[11] = target: Voltage-dependent T-type calcium channel subunit alpha-1H (Homo sapiens, UniProt O95180); type: functional;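 further: channel activity triggered by adding a high calcium stimulation buffer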
Voltage-dependent T-type calcium channel subunit alpha-1H, sequence (O95180 whole entry): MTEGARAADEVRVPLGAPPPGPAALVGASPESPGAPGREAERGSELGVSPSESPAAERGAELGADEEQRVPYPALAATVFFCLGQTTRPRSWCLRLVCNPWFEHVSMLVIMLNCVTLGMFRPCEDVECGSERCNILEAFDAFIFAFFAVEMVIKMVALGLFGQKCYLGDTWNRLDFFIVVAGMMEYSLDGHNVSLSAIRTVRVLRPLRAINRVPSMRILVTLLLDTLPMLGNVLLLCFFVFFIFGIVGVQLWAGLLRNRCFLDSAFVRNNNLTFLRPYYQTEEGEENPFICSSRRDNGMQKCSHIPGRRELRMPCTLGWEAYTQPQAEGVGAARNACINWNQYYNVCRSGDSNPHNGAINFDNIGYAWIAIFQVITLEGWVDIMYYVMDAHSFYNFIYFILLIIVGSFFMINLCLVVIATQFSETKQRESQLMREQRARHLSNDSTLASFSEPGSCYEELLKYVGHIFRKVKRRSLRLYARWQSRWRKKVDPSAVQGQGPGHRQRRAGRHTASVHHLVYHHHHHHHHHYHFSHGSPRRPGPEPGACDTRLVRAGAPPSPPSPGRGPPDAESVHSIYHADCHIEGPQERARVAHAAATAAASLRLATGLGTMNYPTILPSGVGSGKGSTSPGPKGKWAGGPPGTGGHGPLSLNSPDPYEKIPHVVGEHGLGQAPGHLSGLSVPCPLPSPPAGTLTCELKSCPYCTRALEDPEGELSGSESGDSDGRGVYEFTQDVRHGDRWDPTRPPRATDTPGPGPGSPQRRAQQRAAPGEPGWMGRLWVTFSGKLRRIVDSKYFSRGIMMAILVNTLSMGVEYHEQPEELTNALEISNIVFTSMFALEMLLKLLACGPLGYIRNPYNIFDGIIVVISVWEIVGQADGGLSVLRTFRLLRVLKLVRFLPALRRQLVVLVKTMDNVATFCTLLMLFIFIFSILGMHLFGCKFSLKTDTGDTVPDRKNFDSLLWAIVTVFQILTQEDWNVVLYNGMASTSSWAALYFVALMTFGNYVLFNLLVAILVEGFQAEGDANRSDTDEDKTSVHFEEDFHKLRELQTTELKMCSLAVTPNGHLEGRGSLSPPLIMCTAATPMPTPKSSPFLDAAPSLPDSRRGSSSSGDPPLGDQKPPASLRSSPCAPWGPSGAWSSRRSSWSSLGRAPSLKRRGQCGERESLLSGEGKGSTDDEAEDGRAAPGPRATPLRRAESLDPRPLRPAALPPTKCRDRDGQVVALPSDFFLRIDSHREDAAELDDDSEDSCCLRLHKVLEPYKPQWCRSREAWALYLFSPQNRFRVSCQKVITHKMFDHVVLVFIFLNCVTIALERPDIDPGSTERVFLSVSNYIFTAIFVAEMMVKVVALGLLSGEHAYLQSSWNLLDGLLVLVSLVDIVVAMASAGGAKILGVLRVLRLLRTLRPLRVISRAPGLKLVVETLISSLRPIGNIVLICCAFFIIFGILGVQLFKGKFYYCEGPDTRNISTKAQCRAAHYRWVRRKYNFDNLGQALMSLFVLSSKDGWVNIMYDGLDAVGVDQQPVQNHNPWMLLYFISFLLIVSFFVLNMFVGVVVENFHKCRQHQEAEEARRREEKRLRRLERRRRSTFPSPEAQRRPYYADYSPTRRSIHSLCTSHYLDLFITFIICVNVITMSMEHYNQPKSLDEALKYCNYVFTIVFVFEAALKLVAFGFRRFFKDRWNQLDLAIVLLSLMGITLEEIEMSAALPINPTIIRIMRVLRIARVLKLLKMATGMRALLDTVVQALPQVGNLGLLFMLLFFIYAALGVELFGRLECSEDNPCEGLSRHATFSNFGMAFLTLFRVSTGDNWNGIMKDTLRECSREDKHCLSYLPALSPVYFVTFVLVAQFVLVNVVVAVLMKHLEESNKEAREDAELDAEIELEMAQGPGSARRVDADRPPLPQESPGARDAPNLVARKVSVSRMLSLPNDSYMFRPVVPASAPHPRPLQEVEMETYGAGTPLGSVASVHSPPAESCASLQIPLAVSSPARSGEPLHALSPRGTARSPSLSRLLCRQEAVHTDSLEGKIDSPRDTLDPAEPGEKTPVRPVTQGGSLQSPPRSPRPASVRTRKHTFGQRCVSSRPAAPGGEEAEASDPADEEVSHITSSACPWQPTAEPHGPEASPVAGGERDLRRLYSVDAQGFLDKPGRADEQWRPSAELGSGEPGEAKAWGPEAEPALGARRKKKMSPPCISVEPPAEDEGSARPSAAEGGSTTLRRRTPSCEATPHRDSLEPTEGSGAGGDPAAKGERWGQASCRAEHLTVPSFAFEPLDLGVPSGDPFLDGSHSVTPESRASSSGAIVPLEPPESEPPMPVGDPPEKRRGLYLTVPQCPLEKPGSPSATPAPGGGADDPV

CAAX prenyl protease 2 = target: T4, CAAX prenyl protease 2 (Saccharomyces cerevisiae S288c, UniProt Q03530); type: biochemical
T4 sequence (Q03530 whole entry): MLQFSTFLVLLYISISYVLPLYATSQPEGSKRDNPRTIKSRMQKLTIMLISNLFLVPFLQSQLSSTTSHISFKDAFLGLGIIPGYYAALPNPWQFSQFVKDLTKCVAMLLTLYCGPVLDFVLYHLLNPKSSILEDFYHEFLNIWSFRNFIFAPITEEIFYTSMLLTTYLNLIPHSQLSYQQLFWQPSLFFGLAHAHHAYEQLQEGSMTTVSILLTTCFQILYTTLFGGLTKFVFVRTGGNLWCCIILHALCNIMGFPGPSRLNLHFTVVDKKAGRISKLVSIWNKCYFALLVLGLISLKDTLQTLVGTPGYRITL

[12] = THP-1 cell cytotoxicity, dose response, cytotoxicity control for Vif-APOBEC3G degradation inhibitor project, THP-1 cells (AID 1117359); type: functional; details: Human immunodeficiency virus 1, THP-1
[13] = inhibitors of PGC1a acetylation in cells, dose response, cell-based, cherry-picked samples (AID 720514); type: functional;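 further: potency may reflect raised or lowered acetylation signal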
[14] = NIH-3T3 fibroblast cytotoxicity, dose response, cytotoxicity control, cell-based, fluorescence, Alamar Blue, secondary assay (AID 2327); type: functional;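 further: NIH-3T3 mouse fibroblasts cultured with fluconazole at 8 µg/mL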
[15] = C. albicans growth with fluconazole, confirmation, fluorescence, retest (AID 2467); type: functional, cell-based

IC50 [1]: > 64 µM (inactive)
IC50 [2]: > 100 µM (active)
Compound: CCn1c(SCC(=O)NCc2ccc3c(c2)OCO3)nnc1-c1cccs1

Compound: CC(C)C(Nc1ncnc2c1oc1ccccc12)C(=O)O (centres undefined)
IC50 [3]: > 109 µM (inactive)
IC50 [4]: > 83.3 µM (inactive)
EC50 [5]: 10.8 µM (active)
EC50 [6]: 12.6 µM (active)

IC50 (Estrogen receptor beta [7]): 6.59 µM (active)
IC50 [8]: 15.1 µM (active)
IC50 [9]: 52.2 µM (inactive)
IC50 (Estrogen receptor beta [10]): 12.6 µM (not active)
Compound: CCc1nc2sc3ccccc3c(=O)c2c(=O)n1Cc1ccco1

Compound: COc1ccc(OC)c(NC(=O)C2CCN(Cc3cnn(-c4ccccc4)c3-n3cccc3)CC2)c1
EC50 [11]: 2.48 µM (active)
IC50 [3]: > 109 µM (inactive)
IC50 [4]: > 83.3 µM (inactive)

AC50 (CAAX prenyl protease 2): 8.28 µM (active)
Compound: COC(=O)C1CCCN1S(=O)(=O)c1ccc2ccccc2c1 (centres undefined)
CC50 [12]: > 40 µM (active)

Compound: COc1ccc(-c2ccc([C@@H]3[C@@H]4CN(Cc5ccccn5)C[C@H]3N4)cc2)cc1
AC50 [13]: 28.7 µM (active)

Compound: Sc1ncnc2c1cnn2Cc1ccccc1
EC50 [14]: > 150 µM (inactive)
AC50 [13]: 11.2 µM (active)
EC50 [15]: 3.56 µM (active)
